Experimental findings from patent US20230322721A1 (OSLO UNIVERSITETSSYKEHUS HF, priority 2020, published 2023) are described below.

Usually microsomal CLint stands for the rate of metabolic loss divided by the concentration. A low value points to slow turnover. Broadly, the IC50 is the point on the concentration scale where inhibition reaches its midpoint.

A short description of series [1]: Metabolic stability in human liver microsomes (HLM). The class given is in vitro ADME. The note with it: for microsomal CLint at 1 μM / half-life at 1 μM: pH 7.4, 1 μM compound; for half-life at 1 μM: read-out: HLM t1/2 average. The method, then:
(§1) Metabolic stability was investigated in mouse liver microsomes (MLM) and in human liver microsomes (HLM): […] Incubations were performed at 37° C. Control incubations with reference substances were included for each experiment. […] After the last time point, the quench plates were mixed thoroughly and centrifuged for 15 minutes at 3700 rpm and 10° C. (Eppendorf 5804R). The supernatant was transferred to new 96 well plates and subjected to LCMS analysis. The disappearance of the parent compound was determined.
On the technique in general: Liver microsomes are vesicles of endoplasmic reticulum, rich in cytochrome P450 enzymes.

The nature of series [2]: Metabolic stability in mouse liver microsomes (MLM). The class given is in vitro ADME. The note with it: for microsomal CLint at 1 μM / half-life at 1 μM: pH 7.4, 1 μM compound; for half-life at 1 μM: read-out: MLM t1/2 average. The procedure:
as §1

The target in the next series is TNKS2 (Homo sapiens (Human), UniProt Q9H2K2). As to the kind of experiment: Biochemical IC50 TNKS2. From the text:
(§2) XLfit (idbs) was used to determine the IC50-values in inhibition experiments. The following formula was chosen to fit the data points (Langmuir Binding Isotherm): fit=((A+(B*x))+(((C−B)*(1−exp((−1*D)*x)))/D)), res=(y−fit).

The subject of another series is HEK293. Description: Cellular IC50 HEK293. The class given is cell-based.
Text: as §2

[3] abbreviates: 0.5 mg/ml microsomal protein, 37° C.
Where [4] appears, read: read-out: Biochemical IC50 TNKS2.
Where [5] appears, read: Homo sapiens, HEK293, read-out: Cellular IC50 HEK293.
The mark [6] stands for this setting: Homo sapiens, HEK293; read-out: Cellular IC50 HEK293.
[7] abbreviates: 1 μM compound, 0.5 mg/ml microsomal protein, 37° C.
Where [8] appears, read: Homo sapiens, HEK293; read-out: Cellular IC50 HEK 293.

The structures appear in SMILES notation. Where a name gives a salt, the structure may show the parent alone. Read-outs that look alike come from different tables or passages of the source. Some results are limits rather than exact numbers.

TNKS2, sequence (Q9H2K2 whole entry): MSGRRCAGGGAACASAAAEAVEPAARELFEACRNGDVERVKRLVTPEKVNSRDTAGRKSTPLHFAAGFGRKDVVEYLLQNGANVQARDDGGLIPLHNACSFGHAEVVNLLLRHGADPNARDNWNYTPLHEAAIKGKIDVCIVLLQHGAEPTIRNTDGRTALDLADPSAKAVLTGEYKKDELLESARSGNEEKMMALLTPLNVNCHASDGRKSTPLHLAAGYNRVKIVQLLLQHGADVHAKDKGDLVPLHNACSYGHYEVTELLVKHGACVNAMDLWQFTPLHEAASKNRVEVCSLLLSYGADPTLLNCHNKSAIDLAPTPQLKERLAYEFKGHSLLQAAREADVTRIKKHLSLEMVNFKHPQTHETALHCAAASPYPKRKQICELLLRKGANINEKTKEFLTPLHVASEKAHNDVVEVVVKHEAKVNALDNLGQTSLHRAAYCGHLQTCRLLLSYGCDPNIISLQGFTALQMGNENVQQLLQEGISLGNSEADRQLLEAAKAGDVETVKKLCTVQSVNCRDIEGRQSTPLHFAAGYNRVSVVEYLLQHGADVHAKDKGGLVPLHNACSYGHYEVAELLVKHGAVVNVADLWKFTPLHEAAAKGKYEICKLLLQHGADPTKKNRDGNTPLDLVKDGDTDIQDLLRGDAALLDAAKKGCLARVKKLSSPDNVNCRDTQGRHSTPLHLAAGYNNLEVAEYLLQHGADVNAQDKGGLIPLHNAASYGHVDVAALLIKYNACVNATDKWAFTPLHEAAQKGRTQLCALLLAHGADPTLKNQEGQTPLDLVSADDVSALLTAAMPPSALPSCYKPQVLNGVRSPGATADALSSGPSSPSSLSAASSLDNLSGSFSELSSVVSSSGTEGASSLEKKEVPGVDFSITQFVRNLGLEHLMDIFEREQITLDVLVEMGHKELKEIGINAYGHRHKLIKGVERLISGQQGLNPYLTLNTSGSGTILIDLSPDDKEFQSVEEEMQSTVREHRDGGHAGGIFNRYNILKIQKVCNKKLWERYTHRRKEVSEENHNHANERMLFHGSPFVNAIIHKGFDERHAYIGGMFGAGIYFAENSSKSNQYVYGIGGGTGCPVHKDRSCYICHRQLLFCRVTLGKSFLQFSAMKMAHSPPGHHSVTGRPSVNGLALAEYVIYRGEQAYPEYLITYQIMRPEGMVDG

For `CCOc1ccc(-c2nnc([C@H]3C[C@H](NC(=O)c4cccc5nccnc45)C3)n2-c2ccccc2F)nc1` [Example 154 of WO 2019/243822, reference compound], the “clearance in HLM (in words)” value in series [1] is given as “moderate clearance”. Further, the microsomal CLint at 1 μM was 40 µL/min/mg in series [1] (setting [3]) and 81 µL/min/mg in series [2] (setting [3]). For the same compound, the half-life at 1 μM was 35 min in series [1] (setting [3]) and 17 min in series [2] (setting [3]). Also, in series [2], the “clearance in MLM (in words)” value is recorded as “high clearance”. Besides, the IC50 stood at 1.8 nM on TNKS2 (setting [4]) and 0.53 nM with HEK293 (setting [5]).

As to `CCOc1ccc(-c2nnc([C@H]3C[C@H](NC(=O)c4cccc5ncc(O)nc45)C3)n2-c2ccccc2F)nc1` [Example 1, N-((1R,3r)-3-(5-(5-ethoxypyridin-2-yl)-4-(2-fluorophenyl)-4H-1,2,4-triazol-3-yl)cyclobutyl)-3-hydroxyquinoxaline-5-carboxamide], the figures for the intrinsic metabolic clearance (microsomal CLint) at 1 μM in series [1] (setting [3]) and in series [2] (setting [3]) were 45 µL/min/mg and 72 µL/min/mg, respectively. Also, the half-life at 1 μM in series [1] (setting [3]) was 31 min; in series [2] (setting [3]), 19 min. The figures for the IC50 on TNKS2 (setting [4]) and in the series with HEK293 (setting [6]) were 36 nM and 220 nM, respectively.

As to `CCOc1ccc(-c2nnc([C@H]3C[C@H](NC(=O)c4cccc5nc(O)c(O)nc45)C3)n2-c2ccccc2F)nc1` [Example 3, N-((1R,3r)-3-(5-(5-ethoxypyridin-2-yl)-4-(2-fluorophenyl)-4H-1,2,4-triazol-3-yl)cyclobutyl)-2,3-dihydroxyquinoxaline-5-carboxamide], the results for the microsomal CLint at 1 μM in series [1] (setting [3]) and in series [2] (setting [3]) were 5 µL/min/mg and 9 µL/min/mg, respectively. Also, the half-life at 1 μM in series [1] (setting [3]) and in series [2] (setting [3]) was more than 90 min in each case. Further, the results for the IC50 on TNKS2 (setting [4]) and in the series with HEK293 (setting [6]) were 71 nM and 1250 nM, respectively.

Regarding `CCOc1ccc(-c2nnc([C@H]3C[C@H](NC(=O)c4cccc5nc(O)cnc45)C3)n2-c2ccccc2F)nc1` [Example 2, Dihydrochloride], the results for the microsomal CLint at 1 μM in series [1] (setting [3]) and in series [2] (setting [3]) were 17 µL/min/mg and 7 µL/min/mg, respectively. Further, the figures for the half-life at 1 μM in series [1] (setting [3]) and in series [2] (setting [3]) were 79 min and more than 90 min, respectively. Besides, the IC50 at TNKS2 (setting [4]) is 1.5 nM; with HEK293 (setting [6]), 1.1 nM.

Turning to `CCOc1ccc(-c2nnc([C@H]3C[C@H](NC(=O)c4cccc5nccnc45)C3)n2-c2ccccc2F)[n+]([O-])c1` [Example 5, 5-ethoxy-2-(4-(2-fluorophenyl)-5-((1r,3R)-3-(quinoxaline-5-carboxamido)cyclobutyl)-4H-1,2,4-triazol-3-yl)pyridine 1-oxide], in series [1] (setting [7]), the “HLM Clint average” value is 8 μl/min/mg protein and the “HLM t1/2 average” value is recorded as more than 90 min. In series [2] (setting [7]), the “MLM Clint average” value stood at 15 μl/min/mg protein and the “MLM t1/2 average” value is reported as more than 90 min. Besides, the IC50 at TNKS2 (setting [4]) is 1.3 nM. Also, the IC50 with HEK293 (HEK293; read-out: Cellular IC50 HEK293) came out at 0.75 nM.

Take `CCOc1ccc(-c2nnc([C@H]3C[C@H](NC(=O)c4cccc5c4ncc[n+]5[O-])C3)n2-c2ccccc2F)nc1` [Example 4, 5-(((1R,3r)-3-(5-(5-ethoxypyridin-2-yl)-4-(2-fluorophenyl)-4H-1,2,4-triazol-3-yl)cyclobutyl)carbamoyl)quinoxaline 1-oxide]: the results for the microsomal CLint at 1 μM in series [1] (setting [3]) and in series [2] (setting [3]) were 5 µL/min/mg and 19 µL/min/mg, respectively. For the same compound, the half-life at 1 μM is more than 90 min in series [1] (setting [3]) and 71 min in series [2] (setting [3]). Moreover, the 50% inhibitory concentration (IC50) on TNKS2 (setting [4]) stood at 1.6 nM; in the series on HEK293 (setting [5]), 2.5 nM.

For `CCOc1ccc(-c2nnc([C@H]3C[C@H](NC(=O)c4cccc(N)n4)C3)n2-c2ccccc2F)nc1` [Example 20, 6-amino-N-(trans-3-(5-(5-ethoxypyridin-2-yl)-4-(2-fluorophenyl)-4H-1,2,4-triazol-3-yl)cyclobutyl)picolinamide], the results for the IC50 at TNKS2 (setting [4]), with HEK293 (setting [8]) and with HEK293 (setting [6]) were 7.2 nM, 27 nM and 27 nM, respectively.

On to `CCOc1ccc(-c2nnc([C@H]3C[C@H](NC(=O)c4ccc5cccc(O)c5n4)C3)n2-c2ccccc2F)nc1` [Example 21, N-(trans-3-(5-(5-ethoxypyridin-2-yl)-4-(2-fluorophenyl)-4H-1,2,4-triazol-3-yl)cyclobutyl)-8-hydroxyquinoline-2-carboxamide], for which the IC50 amounted to 12.5 nM on TNKS2 (setting [4]), 72 nM in the series with HEK293 (setting [8]) and 72 nM in the series with HEK293 (setting [6]).

As to `CCOc1ccc(-c2nnc([C@H]3C[C@H](NC(=O)c4cccc5c4ccc[n+]5[O-])C3)n2-c2ccccc2F)nc1` [Example 25, 5-((trans-3-(5-(5-ethoxypyridin-2-yl)-4-(2-fluorophenyl)-4H-1,2,4-triazol-3-yl)cyclobutyl)carbamoyl)quinoline 1-oxide], the IC50 at TNKS2 came to 978 nM; in the series on HEK293 (Homo sapiens, HEK293, read-out: Cellular IC50 HEK 293) it was 10000 nM; in the series on HEK293 (setting [5]), 9960 nM.
